Experimental data reported in PubChem BioAssay (NCI).
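The compound was tested at five concentrations on cells cultured in 96-well plates, with a 48-hour exposure period. TGI denotes the concentration required for complete inhibition of growth.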

Key:
Experiment in all cases: DTP human tumour cell line panel, 48 h
EKVX NSCLC = test system: EKVX NSCLC
NCI/ADR-RES ovarian = test system: NCI/ADR-RES ovarian
HOP-92 NSCLC = test system: HOP-92 NSCLC
BT-549 breast = test system: BT-549 breast
HCT-116 colon = test system: HCT-116 colon
SF-539 CNS = test system: SF-539 CNS
CAKI-1 renal = test system: CAKI-1 renal
HS 578T breast = test system: HS 578T breast
NCI-H23 lung = test system: NCI-H23 lung
NCI-H522 lung = test system: NCI-H522 lung
HT29 colon = test system: HT29 colon
KM12 colon = test system: KM12 colon
OVCAR-4 ovarian = test system: OVCAR-4 ovarian
UACC-257 melanoma = test system: UACC-257 melanoma
HCC-2998 colon = test system: HCC-2998 colon
SR leukemia = test system: SR leukemia
MDA-N = test system: MDA-N
A549 NSCLC = test system: A549 NSCLC
SK-MEL-28 melanoma = test system: SK-MEL-28 melanoma
SNB-19 CNS = test system: SNB-19 CNS
ACHN renal = test system: ACHN renal
786-0 renal = test system: 786-0 renal
MDA-MB-231 breast = test system: MDA-MB-231 breast
MDA-MB-435 = test system: MDA-MB-435
SF-268 CNS = test system: SF-268 CNS
U251 CNS = test system: U251 CNS
CCRF-CEM leukemia = test system: CCRF-CEM leukemia
SN12C renal = test system: SN12C renal
UO-31 renal = test system: UO-31 renal
HOP-62 NSCLC = test system: HOP-62 NSCLC
COLO 205 colon = test system: COLO 205 colon
RPMI-8226 leukemia = test system: RPMI-8226 leukemia
SK-MEL-5 melanoma = test system: SK-MEL-5 melanoma
OVCAR-5 ovarian = test system: OVCAR-5 ovarian
SW-620 colon = test system: SW-620 colon
HCT-15 colon = test system: HCT-15 colon
OVCAR-3 ovarian = test system: OVCAR-3 ovarian
OVCAR-8 ovarian = test system: OVCAR-8 ovarian
DU-145 prostate = test system: DU-145 prostate
IGROV1 ovarian = test system: IGROV1 ovarian
PC-3 prostate = test system: PC-3 prostate
M14 melanoma = test system: M14 melanoma
SK-MEL-2 melanoma = test system: SK-MEL-2 melanoma
UACC-62 melanoma = test system: UACC-62 melanoma
MCF7 breast = test system: MCF7 breast
SF-295 CNS = test system: SF-295 CNS
SNB-75 CNS = test system: SNB-75 CNS
RXF 393 renal = test system: RXF 393 renal
MOLT-4 leukemia = test system: MOLT-4 leukemia
NCI-H460 lung = test system: NCI-H460 lung
K-562 leukemia = test system: K-562 leukemia
SK-OV-3 ovarian = test system: SK-OV-3 ovarian
A498 renal = test system: A498 renal
T-47D breast = test system: T-47D breast
TK-10 renal = test system: TK-10 renal
MALME-3M melanoma = test system: MALME-3M melanoma
HL-60(TB) leukemia = test system: HL-60(TB) leukemia
NCI-H226 lung = test system: NCI-H226 lung
LOX IMVI melanoma = test system: LOX IMVI melanoma

## Cc1c(Cc2ccccc2)n(C(C)OCCN(OC(=O)Oc2ccccc2)C(=O)Oc2ccccc2)c(=O)[nH]c1=O (stereo not given)
EKVX NSCLC
  TGI: 30.4 µM
NCI/ADR-RES ovarian
  TGI: 39.1 µM
HOP-92 NSCLC
  TGI: 29.7 µM
BT-549 breast
  TGI: 33 µM
HCT-116 colon
  TGI: 41.6 µM
SF-539 CNS
  TGI: 37.4 µM
CAKI-1 renal
  TGI: 33.9 µM
HS 578T breast
  TGI: 42.6 µM
NCI-H23 lung
  TGI: 31 µM
NCI-H522 lung
  TGI: 29.3 µM
HT29 colon
  TGI: 32.1 µM
KM12 colon
  TGI: 29.9 µM
OVCAR-4 ovarian
  TGI: 42.8 µM
UACC-257 melanoma
  TGI: 30.2 µM
HCC-2998 colon
  TGI: 31.5 µM
SR leukemia
  TGI: > 100 µM
MDA-N
  TGI: 41.4 µM
A549 NSCLC
  TGI: 73.9 µM
SK-MEL-28 melanoma
  TGI: 42 µM
SNB-19 CNS
  TGI: > 100 µM
ACHN renal
  TGI: 57.3 µM
786-0 renal
  TGI: 34.3 µM
MDA-MB-231 breast
  TGI: 38.5 µM
MDA-MB-435
  TGI: 56.5 µM
SF-268 CNS
  TGI: 40.3 µM
U251 CNS
  TGI: 38.3 µM
CCRF-CEM leukemia
  TGI: 50 µM
SN12C renal
  TGI: 40.5 µM
UO-31 renal
  TGI: 29.3 µM
HOP-62 NSCLC
  TGI: 36.7 µM
COLO 205 colon
  TGI: 34.9 µM
RPMI-8226 leukemia
  TGI: 79.6 µM
SK-MEL-5 melanoma
  TGI: 28.4 µM
OVCAR-5 ovarian
  TGI: 31.6 µM
SW-620 colon
  TGI: 41.7 µM
HCT-15 colon
  TGI: 28.3 µM
OVCAR-3 ovarian
  TGI: 37.7 µM
OVCAR-8 ovarian
  TGI: 34.7 µM
DU-145 prostate
  TGI: 85.1 µM
IGROV1 ovarian
  TGI: 31.7 µM
PC-3 prostate
  TGI: 58.9 µM
M14 melanoma
  TGI: 32 µM
SK-MEL-2 melanoma
  TGI: 37.2 µM
UACC-62 melanoma
  TGI: 30.5 µM
MCF7 breast
  TGI: 63.8 µM
SF-295 CNS
  TGI: 30.8 µM
SNB-75 CNS
  TGI: 20.6 µM
RXF 393 renal
  TGI: 30.1 µM
MOLT-4 leukemia
  TGI: 46.3 µM
NCI-H460 lung
  TGI: 32.7 µM
K-562 leukemia
  TGI: 93.5 µM
SK-OV-3 ovarian
  TGI: 46.3 µM

## Cc1ccc(Cc2cc(N3CCN(c4cccc(Cl)c4)CC3)nnc2C)cc1
EKVX NSCLC
  TGI: > 100 µM
NCI/ADR-RES ovarian
  TGI: > 100 µM
BT-549 breast
  TGI: > 100 µM
HCT-116 colon
  TGI: > 100 µM
SF-539 CNS
  TGI: > 100 µM
CAKI-1 renal
  TGI: > 100 µM
HS 578T breast
  TGI: > 100 µM
NCI-H23 lung
  TGI: > 100 µM
NCI-H522 lung
  TGI: 81.5 µM
HT29 colon
  TGI: 81.2 µM
KM12 colon
  TGI: > 100 µM
OVCAR-4 ovarian
  TGI: > 100 µM
UACC-257 melanoma
  TGI: > 100 µM
MDA-N
  TGI: > 100 µM
A549 NSCLC
  TGI: > 100 µM
SK-MEL-28 melanoma
  TGI: > 100 µM
SNB-19 CNS
  TGI: > 100 µM
ACHN renal
  TGI: > 100 µM
A498 renal
  TGI: > 100 µM
786-0 renal
  TGI: > 100 µM
MDA-MB-231 breast
  TGI: > 100 µM
MDA-MB-435
  TGI: > 100 µM
SF-268 CNS
  TGI: > 100 µM
U251 CNS
  TGI: > 100 µM
SN12C renal
  TGI: > 100 µM
UO-31 renal
  TGI: > 100 µM
HOP-62 NSCLC
  TGI: > 100 µM
COLO 205 colon
  TGI: 73.8 µM
RPMI-8226 leukemia
  TGI: > 100 µM
T-47D breast
  TGI: > 100 µM
SK-MEL-5 melanoma
  TGI: 41.6 µM
OVCAR-5 ovarian
  TGI: > 100 µM
SW-620 colon
  TGI: > 100 µM
HCT-15 colon
  TGI: > 100 µM
OVCAR-3 ovarian
  TGI: > 100 µM
OVCAR-8 ovarian
  TGI: > 100 µM
DU-145 prostate
  TGI: > 100 µM
PC-3 prostate
  TGI: > 100 µM
M14 melanoma
  TGI: > 100 µM
SK-MEL-2 melanoma
  TGI: > 100 µM
UACC-62 melanoma
  TGI: > 100 µM
MCF7 breast
  TGI: > 100 µM
SF-295 CNS
  TGI: > 100 µM
SNB-75 CNS
  TGI: > 100 µM
RXF 393 renal
  TGI: > 100 µM
TK-10 renal
  TGI: > 100 µM
NCI-H460 lung
  TGI: > 100 µM
SK-OV-3 ovarian
  TGI: > 100 µM

## CN(c1ccccc1)S(=O)(=O)c1ccc([N+](=O)[O-])cc1
EKVX NSCLC
  TGI: > 100 µM
NCI/ADR-RES ovarian
  TGI: > 100 µM
MALME-3M melanoma
  TGI: > 100 µM
BT-549 breast
  TGI: > 100 µM
HCT-116 colon
  TGI: > 100 µM
HL-60(TB) leukemia
  TGI: > 100 µM
SF-539 CNS
  TGI: > 100 µM
CAKI-1 renal
  TGI: > 100 µM
NCI-H23 lung
  TGI: > 100 µM
NCI-H522 lung
  TGI: > 100 µM
HT29 colon
  TGI: > 100 µM
KM12 colon
  TGI: > 100 µM
OVCAR-4 ovarian
  TGI: > 100 µM
UACC-257 melanoma
  TGI: > 100 µM
SR leukemia
  TGI: > 100 µM
MDA-N
  TGI: > 100 µM
A549 NSCLC
  TGI: > 100 µM
SK-MEL-28 melanoma
  TGI: > 100 µM
SNB-19 CNS
  TGI: > 100 µM
ACHN renal
  TGI: > 100 µM
786-0 renal
  TGI: > 100 µM
MDA-MB-231 breast
  TGI: > 100 µM
MDA-MB-435
  TGI: > 100 µM
SF-268 CNS
  TGI: > 100 µM
NCI-H226 lung
  TGI: > 100 µM
U251 CNS
  TGI: > 100 µM
SN12C renal
  TGI: > 100 µM
UO-31 renal
  TGI: > 100 µM
HOP-62 NSCLC
  TGI: > 100 µM
COLO 205 colon
  TGI: > 100 µM
RPMI-8226 leukemia
  TGI: > 100 µM
T-47D breast
  TGI: > 100 µM
OVCAR-5 ovarian
  TGI: > 100 µM
SW-620 colon
  TGI: > 100 µM
HCT-15 colon
  TGI: > 100 µM
OVCAR-3 ovarian
  TGI: > 100 µM
OVCAR-8 ovarian
  TGI: > 100 µM
DU-145 prostate
  TGI: > 100 µM
PC-3 prostate
  TGI: > 100 µM
M14 melanoma
  TGI: > 100 µM
LOX IMVI melanoma
  TGI: > 100 µM
SK-MEL-2 melanoma
  TGI: > 100 µM
MCF7 breast
  TGI: > 100 µM
SF-295 CNS
  TGI: > 100 µM
RXF 393 renal
  TGI: > 100 µM
TK-10 renal
  TGI: > 100 µM
NCI-H460 lung
  TGI: > 100 µM

## CN(C)CN1CSC(=S)N(CN(C)C)C1
EKVX NSCLC
  TGI: > 100 µM
NCI/ADR-RES ovarian
  TGI: > 100 µM
MALME-3M melanoma
  TGI: > 100 µM
HOP-92 NSCLC
  TGI: > 100 µM
BT-549 breast
  TGI: > 100 µM
HCT-116 colon
  TGI: > 100 µM
CAKI-1 renal
  TGI: > 100 µM
HS 578T breast
  TGI: > 100 µM
NCI-H23 lung
  TGI: > 100 µM
NCI-H522 lung
  TGI: > 100 µM
HT29 colon
  TGI: > 100 µM
KM12 colon
  TGI: > 100 µM
OVCAR-4 ovarian
  TGI: > 100 µM
UACC-257 melanoma
  TGI: > 100 µM
HCC-2998 colon
  TGI: > 100 µM
SR leukemia
  TGI: 55.2 µM
MDA-N
  TGI: > 100 µM
A549 NSCLC
  TGI: > 100 µM
SK-MEL-28 melanoma
  TGI: > 100 µM
SNB-19 CNS
  TGI: > 100 µM
ACHN renal
  TGI: > 100 µM
A498 renal
  TGI: > 100 µM
786-0 renal
  TGI: > 100 µM
MDA-MB-231 breast
  TGI: > 100 µM
MDA-MB-435
  TGI: > 100 µM
SF-268 CNS
  TGI: > 100 µM
NCI-H226 lung
  TGI: > 100 µM
U251 CNS
  TGI: > 100 µM
CCRF-CEM leukemia
  TGI: > 100 µM
SN12C renal
  TGI: > 100 µM
UO-31 renal
  TGI: > 100 µM
HOP-62 NSCLC
  TGI: > 100 µM
T-47D breast
  TGI: > 100 µM
SK-MEL-5 melanoma
  TGI: > 100 µM
OVCAR-5 ovarian
  TGI: > 100 µM
SW-620 colon
  TGI: > 100 µM
HCT-15 colon
  TGI: > 100 µM
OVCAR-3 ovarian
  TGI: > 100 µM
OVCAR-8 ovarian
  TGI: > 100 µM
DU-145 prostate
  TGI: > 100 µM
IGROV1 ovarian
  TGI: > 100 µM
PC-3 prostate
  TGI: 42.7 µM
M14 melanoma
  TGI: > 100 µM
LOX IMVI melanoma
  TGI: > 100 µM
SK-MEL-2 melanoma
  TGI: 96.3 µM
UACC-62 melanoma
  TGI: > 100 µM
SF-295 CNS
  TGI: > 100 µM
SNB-75 CNS
  TGI: > 100 µM
RXF 393 renal
  TGI: > 100 µM
TK-10 renal
  TGI: > 100 µM
MOLT-4 leukemia
  TGI: 92.4 µM
NCI-H460 lung
  TGI: > 100 µM
K-562 leukemia
  TGI: > 100 µM
